Assay results taken from publication PMC7029632, “Routing Nanomolar Protein Cargoes to Lipid Raft‐Mediated/Caveolar Endocytosis through a Ganglioside GM1‐Specific Recognition Tag” (Advanced Science, 2020).

Experiments:
ganglioside GM1 = assay: ITC titration with GM1:DPC 1:5 bicelles; conditions: two-independent-binding-site model, pH 7.2 phosphate, 35 °C, read-out: K D toward GM1 (tagged NeutrAvidin)
HeLa cells = assay: Flow cytometry (FACS) uptake of NA constructs and fluorescently labeled sequences, HeLa; conditions: 1 µM cargo, 1 h, 37 °C, MEM+1% FBS, trypan blue quencher, triplicate
[1] = cited from earlier work
Source text: Helenius and Pelkmans pointed out that multivalent binding/clustering of ganglioside GM1 is necessary to trigger lipid raft‐mediated/caveolar endocytosis,9 and the tetravalent nature of our model carrier–cargo complex is consistent with this observation. On the other hand, the number of copies of the carrier sequence required for endocytosis can be crucial, especially if the carrier–cargo complex is produced by recombinant synthesis. […] CFU‐Penetratin, which has ...

Jurkat cells = assay: Uptake in competition with galectin-1, flow cytometry; type: cell-based, human; conditions: only at concentrations orders of magnitude higher than serum galectin-1 level (6.7 nM)

| Substance | Kd (ganglioside GM1) [nM] | level of uptake by FACS (HeLa cells) | affinity for terminal digalactosides [1] | inhibition of GM1–WYKYW interaction by galectin-1 (Jurkat cells) |
| --- | --- | --- | --- | --- |
| NA(biotinyl‐PEG‐WYKYW)4 | 14.5 ± 1.7 | similar | – | – |
| galectin‐1: protein binding terminal digalactosides, used as inhibitor | – | – | micromolar affinity | competitive inhibitor of the GM1–WYKYW interaction |
